In patent US20260317344A1, “EGFR INHIBITORS FOR TREATING DISEASE” (BLOSSOMHILL THERAPEUTICS, INC., priority 2023, published 2026) one finds IC50 data, which are given here for 8 molecules.

SMILES strings stand for the structures. Where two headings read alike, the source gives them in different places.

Assay [1] addresses EGFR (D770_N771insNPG) (Homo sapiens, UniProt P00533, INS770NPG). Nature of the assay: HotSpot radiometric kinase assay, inhibition of EGFR (D770_N771insNPG) mutant. The conditions noted are these: 33P ATP, room temperature, 120 m. The assay is classed as biochemical. Here is the method: (§1) Biochemical Assays for inhibition of wild-type and mutant EGFRs
(§2) Briefly, specific kinase/substrate pairs along with required cofactors were prepared in reaction buffer; 20 mM HEPES pH 7.5, 10 mM […], 1 mM EGTA, 0.02% Brij35, 0.02 mg/ml BSA, 0.1 mM Na3VO4, 2 mM DTT, 1% DMSO. Compounds were delivered into the reaction, followed ~20 minutes later by addition of a mixture of ATP (Sigma, St. Louis MO) and ^33P ATP (Perkin Elmer, Waltham MA) to a final concentration of […]. Reactions were carried out at room temperature for 120 m, followed by spotting of the reactions onto P81 ion exchange filter paper (Whatman Inc., Piscataway, NJ). Unbound phosphate was removed by extensive washing of filters in 0.75% phosphoric acid. […] IC50 values and curve fits were obtained using Prism (GraphPad Software).

In assay [2] the target is EGFR (D746-750) (Homo sapiens, UniProt P00533, DEL746-750). Put plainly: HotSpot radiometric kinase assay, inhibition of EGFR 746-750 mutant. The conditions noted are these: 33P ATP, room temperature, 120 m. The assay is classed as biochemical. Here is the method:
as §1, §2

In assay [3] the target is EGFR (D746-750/C797S) (Homo sapiens, UniProt P00533, C797S/DEL746-750). Put plainly: HotSpot radiometric kinase assay, inhibition of EGFR 746-750/C797S mutant. The assay is classed as biochemical. The settings on record: 33P ATP, room temperature, 120 m. The protocol: as §1, §2
Assay [4] deals with EGFR (L858R/T790M/C797S) (Homo sapiens, UniProt P00533, C797S/L858R/T790M). Nature of the assay: HotSpot radiometric kinase assay, inhibition of EGFR L858R/T790M/C797S mutant. The conditions noted are these: 33P ATP, room temperature, 120 m. The assay is classed as biochemical. Here is the method: as §1, §2
The subject of assay [5] is BaF3 cells with engineered EGFR L858R/T790M/C797S. Put plainly: 3-Day CellTiter Glo (CTG) cell proliferation assay, BaF3 EGFR L858R/T790M/C797S. Format: cell-based. The settings on record: Mus musculus, 3-day CTG proliferation, 72 hours. Here is the method:
3-DAY CellTiter Glo (CTG) Cell Proliferation Assays (BaF3 Cell Lines)
Cell proliferation assays were carried out in BaF3 cells engineered with EGFR mutations. BaF3 cells with engineered EGFR L858R/T790M/C797S, EGFR L858R/C797S, or EGFR d746-750/T790M transgene, one thousand cells/50 μL per well were seeded in white 384-well plate, followed by treatment with indicated compounds in a 9-dose dilution series using TECAN d300e liquid dispenser. Cells were incubated with compounds for 72 hours at 37° C. and 5% CO2. Cell proliferation was measured using CellTiter-Gbo 2.0 luciferase-based ATP detection assay (Promega, Madison, WI) at 18 μL per well following the manufacturer's protocol. Plates were then read on a TECAN Sparks multimode microplate reader. Data was analyzed using GraphPad Prism 9 (GraphiPad Software, San Diego, CA) to obtain IC50 values.

Assay [6] has as its system NCI-H1975 cells. Nature of the assay: 5-Day CellTiter Glo (CTG) cell proliferation assay, NCI-H1975. The conditions noted are these: Homo sapiens, read-out: H1975 IC50. Format: cell-based. The protocol: (§3) 5-Day CellTiter Glo (CTG) Cell Proliferation Assays (PC9, H1975, H827)
(§4) Cell proliferation assays were carried out in NSCLC cells with EGFR activation mutations. Both PC-9 cells and HCC827 cells (purchased from DSMZ) carry a Glu746-Ala750 deletion (d746-750) mutation in exon 19 of the EGFR gene and NCI-H1975 cells carry both L858R activation mutation and T790M gatekeeper mutation in the EGFR gene. One thousand PC-9, NCI-H1975 or HCC827 cells/100 μL per well were seeded in 96-well black plate with transparent bottom and then treated with indicated compounds in a 9-dose dilution series dispensed using TECAN d300e liquid dispenser. Cells were incubated with compounds for 120 hours at 37° C. and 5% CO2. Cell proliferation was measured using CellTiter-Glo 2.0 luciferase-based ATP detection assay (Promega, Madison, WI) at […] per well following the manufacturer's protocol. Plates were then read on a TECAN Sparks multimode microplate reader. Data was analyzed using GraphPad Prism 9 (GraphPad Software, San Diego, CA) to obtain IC50 values.

The target of assay [7] is T1, pEGFR, A431 cells (wildtype EGFR) (Homo sapiens, UniProt P00533).
T1 construct: pEGFR (Tyr1068) TR-FRET
T1 sequence (P00533 25-1210): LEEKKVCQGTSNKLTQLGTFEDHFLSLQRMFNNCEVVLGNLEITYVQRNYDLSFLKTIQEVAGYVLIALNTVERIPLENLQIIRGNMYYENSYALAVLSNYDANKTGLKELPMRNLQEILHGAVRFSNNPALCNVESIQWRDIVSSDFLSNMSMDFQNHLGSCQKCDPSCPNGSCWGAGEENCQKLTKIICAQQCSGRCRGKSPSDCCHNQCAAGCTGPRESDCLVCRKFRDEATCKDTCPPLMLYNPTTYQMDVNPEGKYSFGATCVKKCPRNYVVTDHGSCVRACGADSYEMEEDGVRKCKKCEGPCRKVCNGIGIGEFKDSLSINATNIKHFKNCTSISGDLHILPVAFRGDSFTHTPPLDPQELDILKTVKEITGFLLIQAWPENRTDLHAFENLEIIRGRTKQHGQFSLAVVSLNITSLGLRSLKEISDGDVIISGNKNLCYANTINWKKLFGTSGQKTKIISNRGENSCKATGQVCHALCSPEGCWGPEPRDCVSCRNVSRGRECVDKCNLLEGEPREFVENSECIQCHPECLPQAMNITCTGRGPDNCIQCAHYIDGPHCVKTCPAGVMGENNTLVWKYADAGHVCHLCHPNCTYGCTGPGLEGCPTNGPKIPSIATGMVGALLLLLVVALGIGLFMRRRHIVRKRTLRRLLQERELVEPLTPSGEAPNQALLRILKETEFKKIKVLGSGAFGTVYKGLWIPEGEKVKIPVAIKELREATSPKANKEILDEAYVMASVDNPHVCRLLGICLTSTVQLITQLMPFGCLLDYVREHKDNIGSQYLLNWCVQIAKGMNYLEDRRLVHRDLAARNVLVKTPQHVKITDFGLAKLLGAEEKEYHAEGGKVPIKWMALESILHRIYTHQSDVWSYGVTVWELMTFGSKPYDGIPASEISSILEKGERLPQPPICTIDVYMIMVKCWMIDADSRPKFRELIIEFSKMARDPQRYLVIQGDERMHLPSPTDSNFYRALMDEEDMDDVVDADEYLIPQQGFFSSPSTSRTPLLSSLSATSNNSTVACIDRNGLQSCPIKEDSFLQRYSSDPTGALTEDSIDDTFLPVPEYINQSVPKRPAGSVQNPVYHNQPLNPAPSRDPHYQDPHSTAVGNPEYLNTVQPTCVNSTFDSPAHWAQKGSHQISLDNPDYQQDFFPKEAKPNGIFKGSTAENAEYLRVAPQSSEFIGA
Nature of the assay: Cellular EGFR phosphorylation assay (LANCE Ultra TR-FRET) in A431 cells. Format: cell-based. The settings on record: 4 hours at 37° C., 40 ng/mL EGF for the final 10 minutes, read-out: A431 pEGFR IC50. The protocol: (§5) Cellular EGFR Phosphorylation Assays
(§6) EGFR phosphorylation assays were conducted in NSCLC cells with EGFR activation mutations. PC-9 cells (purchased from Aldrich-Sigma) carry a Glu746-Ala750 deletion (d746-750) mutation in exon 19 of the EGFR gene and NCI-H1975 cells (purchased from ATCC) carry both L858R activation mutation and T790M gatekeeper mutation in the EGFR gene. A431 cells (purchased from ATCC) with amplification of wildtype EGFR, derived from epidermoid carcinoma, were used to measure the activity against wildtype EGFR. All cells were seeded in 96-well plates. For PC-9 and NCI-H1975 cells, 50 thousand cells were seeded per well. For A431 cells, 30 thousand cells were seeded per well. The next day, cells were exposed to compound for 4 hours at 37° C. and 5% CO2. Compounds were diluted in DMSO and added to cells in a 9-dose, 3-fold dilution, titration curve using TECAN d300e liquid dispenser. For A431 cells, 40 ng/mL of EGF was added to the media for the final 10 minutes of incubation. EGFR phosphorylation was measured using phospho-EGFR (Try1068) LANCE Ultra TR-FRET Detection Kit (TRF4015M) from PerkinElmer according to manufacturer's instructions. In brief, cells were lysed with 40 μL of lysis buffer plus 1× Halt protease and phosphatase inhibitor cocktail (Thermo 78441) and by incubation at room temperature for 1 h on a microplate shaker (350 rpm). 15 μ L of cell lysate was transferred to 384-well white plate and 5 μL of Europium- and ULight-labeled antibodies diluted in 1× detection buffer was added to each well. After 4-6 hours of incubation at room temperature, plates were then read on a TECAN Sparks multimode microplate reader. Data was analyzed using GraphPad Prism 9 (GraphPad Software, San Diego, CA) to obtain IC50 values.

Assay [8] relates to PC-9 cells. Put plainly: 5-Day CellTiter Glo (CTG) cell proliferation assay, PC-9. Format: cell-based. The settings on record: Homo sapiens, read-out: PC-9 IC50. Here is the method: as §3, §4
Assay [9] relates to HCC827 cells. Nature of the assay: 5-Day CellTiter Glo (CTG) cell proliferation assay, HCC827. The assay is classed as cell-based. The conditions noted are these: Homo sapiens, read-out: HCC827 IC50. The protocol:
as §3, §4

The target in assay [10] is T2, pEGFR, PC-9 cells (d746-750 EGFR) (Homo sapiens, UniProt P00533, DEL746-750).
T2 construct: pEGFR (Tyr1068) TR-FRET
T2 sequence (P00533 with tags, fused parts or gaps DEL746-750): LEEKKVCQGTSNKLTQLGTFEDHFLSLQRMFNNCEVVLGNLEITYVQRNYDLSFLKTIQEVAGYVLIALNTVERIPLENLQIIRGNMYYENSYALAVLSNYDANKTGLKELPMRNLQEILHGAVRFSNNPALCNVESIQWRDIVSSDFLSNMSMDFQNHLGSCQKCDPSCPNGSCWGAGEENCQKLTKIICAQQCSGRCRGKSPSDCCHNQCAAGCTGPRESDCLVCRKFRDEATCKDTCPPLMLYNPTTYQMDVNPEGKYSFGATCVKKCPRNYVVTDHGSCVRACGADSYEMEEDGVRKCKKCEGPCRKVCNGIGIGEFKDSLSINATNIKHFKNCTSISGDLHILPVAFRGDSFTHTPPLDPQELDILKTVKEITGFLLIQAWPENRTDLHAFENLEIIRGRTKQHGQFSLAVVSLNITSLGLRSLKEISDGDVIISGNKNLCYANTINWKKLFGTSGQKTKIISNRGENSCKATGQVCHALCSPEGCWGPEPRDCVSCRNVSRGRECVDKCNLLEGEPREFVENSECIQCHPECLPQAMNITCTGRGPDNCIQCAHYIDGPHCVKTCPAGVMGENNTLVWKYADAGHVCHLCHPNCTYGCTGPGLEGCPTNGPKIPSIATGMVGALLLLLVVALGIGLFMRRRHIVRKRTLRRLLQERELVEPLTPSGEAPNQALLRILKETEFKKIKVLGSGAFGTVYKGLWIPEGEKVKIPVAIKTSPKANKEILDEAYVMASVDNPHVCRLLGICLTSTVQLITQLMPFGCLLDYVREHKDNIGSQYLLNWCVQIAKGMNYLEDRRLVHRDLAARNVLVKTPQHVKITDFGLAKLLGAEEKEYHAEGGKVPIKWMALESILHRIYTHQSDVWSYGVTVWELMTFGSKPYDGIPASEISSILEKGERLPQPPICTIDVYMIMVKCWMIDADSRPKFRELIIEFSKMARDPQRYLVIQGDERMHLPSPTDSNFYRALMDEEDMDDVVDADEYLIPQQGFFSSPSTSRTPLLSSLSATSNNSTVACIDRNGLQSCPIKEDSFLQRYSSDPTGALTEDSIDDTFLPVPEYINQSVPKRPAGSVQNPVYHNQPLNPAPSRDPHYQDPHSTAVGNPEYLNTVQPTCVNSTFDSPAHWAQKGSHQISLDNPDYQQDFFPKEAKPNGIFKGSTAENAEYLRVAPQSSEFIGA
Put plainly: Cellular EGFR phosphorylation assay (LANCE Ultra TR-FRET) in PC-9 cells. The settings on record: 4 hours at 37° C., read-out: PC-9 pEGFR IC50. The assay is classed as cell-based. Here is the method: as §5, §6

Assay [11] concerns the target T3, pEGFR, NCI-H1975 cells (L858R/T790M EGFR) (Homo sapiens, UniProt P00533, L858R/T790M).
T3 construct: pEGFR (Tyr1068) TR-FRET
Nature of the assay: Cellular EGFR phosphorylation assay (LANCE Ultra TR-FRET) in NCI-H1975 cells. The assay is classed as cell-based. The conditions noted are these: 4 hours at 37° C., read-out: H1975 pEGFR IC50. Here is the method:
as §5, §6

[12] abbreviates: NCI-H1975 cells (L858R/T790M EGFR), 5-day CTG proliferation, 120 hours.
The mark [13] stands for this setting: PC-9 cells (d746-750 EGFR), 5-day CTG proliferation, 120 hours.
[14] abbreviates: HCC827 cells (d746-750 EGFR), 5-day CTG proliferation, 120 hours.

EGFR (D746-750), sequence (P00533 with tags, fused parts or gaps DEL746-750): as above
T3 sequence (P00533 25-1210 T790M/L858R): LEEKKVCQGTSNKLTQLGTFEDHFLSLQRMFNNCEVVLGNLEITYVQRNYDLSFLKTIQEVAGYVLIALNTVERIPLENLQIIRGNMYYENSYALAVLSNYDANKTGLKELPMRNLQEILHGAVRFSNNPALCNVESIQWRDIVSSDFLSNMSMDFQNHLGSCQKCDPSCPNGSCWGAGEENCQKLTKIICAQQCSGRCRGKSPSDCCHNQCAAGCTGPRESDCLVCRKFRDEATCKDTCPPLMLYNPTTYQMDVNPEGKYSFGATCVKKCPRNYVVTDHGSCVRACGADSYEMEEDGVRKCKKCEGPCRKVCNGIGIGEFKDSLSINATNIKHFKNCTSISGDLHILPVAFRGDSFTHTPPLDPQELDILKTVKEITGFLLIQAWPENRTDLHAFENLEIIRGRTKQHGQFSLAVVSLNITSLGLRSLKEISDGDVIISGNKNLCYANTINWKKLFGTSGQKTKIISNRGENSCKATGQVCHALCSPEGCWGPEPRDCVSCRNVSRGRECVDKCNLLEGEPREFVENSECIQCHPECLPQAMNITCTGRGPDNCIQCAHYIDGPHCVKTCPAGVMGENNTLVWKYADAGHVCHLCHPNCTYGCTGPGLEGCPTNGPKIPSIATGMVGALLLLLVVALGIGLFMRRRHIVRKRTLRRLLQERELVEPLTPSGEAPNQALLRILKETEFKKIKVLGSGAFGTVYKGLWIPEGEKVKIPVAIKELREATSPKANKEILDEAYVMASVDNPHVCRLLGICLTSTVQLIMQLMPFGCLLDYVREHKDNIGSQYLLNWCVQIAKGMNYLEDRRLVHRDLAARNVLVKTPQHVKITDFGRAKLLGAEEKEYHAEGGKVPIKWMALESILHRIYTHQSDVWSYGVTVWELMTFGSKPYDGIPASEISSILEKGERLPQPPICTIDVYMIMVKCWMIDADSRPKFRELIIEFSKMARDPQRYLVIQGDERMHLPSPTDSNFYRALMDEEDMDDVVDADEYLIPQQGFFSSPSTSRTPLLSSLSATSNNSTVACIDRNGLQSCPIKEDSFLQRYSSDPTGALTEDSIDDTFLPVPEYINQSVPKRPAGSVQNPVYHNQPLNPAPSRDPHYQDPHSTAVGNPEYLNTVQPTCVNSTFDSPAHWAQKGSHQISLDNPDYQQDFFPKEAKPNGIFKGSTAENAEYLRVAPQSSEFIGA

As for `CCOc1nn(CCO)c2c1/C=C/c1n[nH]c3c(C)nc(cc13)-c1cnn(C)c1O[C@H](C)CN(CC)C2` [Ex. 37, 2-[(10R,17E)-16-ethoxy-12-ethyl-8,10,20-trimethyl-2,8,10,11,12,13-hexahydro-14H-5,3-(azenometheno)tripyrazolo[3,4-f:3′,4′-j:4″,3″-n][1,4]oxazacyclopentadecin-14-yl]ethan-1-ol], the IC50 in [1] amounted to 1.62 nM; in assay [2], 0.31 nM; in assay [3] it was 0.79 nM; in assay [4], 0.71 nM.

Consider `Cc1nn(C)c2c1-c1cc3c(n[nH]c3cn1)/C=C/c1c(OCC#N)nn(CCO)c1CN(C)C[C@@H](C)O2` [Ex. 42, {[(10R,17E)-14-(2-hydroxyethyl)-6,8,10,12-tetramethyl-2,10,11,12,13,14-hexahydro-8H-5,3-(azenometheno)tripyrazolo[3,4-f:3′,4′-j:4″,3″-n][1,4]oxazacyclopentadecin-16-yl]oxy}acetonitrile], for which the IC50 in assay [1] came to 0.35 nM; in [2], 0.29 nM; in [3], 0.83 nM; in [4] it was 0.56 nM.

On to `Cc1nn(C)c2c1-c1cc3c(n[nH]c3cn1)/C=C/c1c(OCC#N)nn(CCO)c1CN1CCC[C@@H]1CO2` [Ex. 43, {[(8aR,19E)-3-(2-hydroxyethyl)-11,13-dimethyl-3,4,7,8,8a,9,11,17-octahydro-6H-14,16-(azenometheno)tripyrazolo[3,4-f:3′,4′-j:4″,3″-n]pyrrolo[2,1-c][1,4]oxazacyclopentadecin-1-yl]oxy}acetonitrile], for which the IC50 in assay [1] is 0.18 nM; in [2], 0.09 nM; in assay [3] it was 0.23 nM; in [4] it was 0.16 nM.

Take `Cc1c2c(nn1C)CN(C)CCOc1c(cnn1C)-c1cc3c(n[nH]c3cn1)/C=C/2` [Ex. 73, (17E)-8,12,15,16-tetramethyl-2,10,11,12,13,15-hexahydro-8H-5,3-(azenometheno)tripyrazolo[3,4-f:3′,4′-j:4″,3″-n][1,4]oxazacyclopentadecine]: the IC50 was determined as 35.8 nM in [5]; 5.53 nM in assay [6] (setting [12]); 564 nM in assay [7]; 23.7 nM in assay [8] (setting [13]); 0.24 nM in assay [9] (setting [14]); 72.6 nM in assay [10].

Regarding `[2H]C([2H])([2H])C([2H])([2H])Oc1nn([C@@H](C)CO)c2c1/C=C/c1n[nH]c3cnc(cc13)-c1c(C)nn(C)c1O[C@@H](C)CN(C)C2` [Ex. 87, (2S)-2-[(10S,17E)-16-[(^2H5)ethyloxy]-6,8,10,12-tetramethyl-2,8,10,11,12,13-hexahydro-14H-5,3-(azenometheno)tripyrazolo[3,4-f:3′,4′-j:4″,3″-n][1,4]oxazacyclopentadecin-14-yl]propan-1-ol], the IC50 in assay [6] (NCI-H1975, 120 h) stood at 0.57 nM; in assay [7], 5.88 nM; in [11] it was 1.82 nM; in assay [8] (PC-9, 120 h), 0.36 nM; in assay [9] (HCC827, 120 h) it was 0.23 nM; in assay [10] it was 0.97 nM.

For the molecule `CCOc1nn([C@@H](C)CO)c2c1/C=C/c1n[nH]c3c(C)nc(cc13)-c1c(COC)nn(C)c1O[C@@H](C)CN(CC)C2` [Ex. 147, (2S)-2-[(10S,17E)-16-ethoxy-12-ethyl-6-(methoxymethyl)-8,10,20-trimethyl-2,8,10,11,12,13-hexahydro-14H-5,3-(azenometheno)tripyrazolo[3,4-f:3′,4′-j:4″,3″-n][1,4]oxazacyclopentadecin-14-yl]propan-1-ol], the 50% inhibitory concentration (IC50) in assay [6] (setting [12]) came to 20.4 nM; in [7] it was 11.3 nM; in assay [8] (setting [13]), 0.59 nM; in [9] (setting [14]), 0.34 nM.

For `CCN1Cc2c(c(OCC#N)nn2[C@@H](C)CO)/C=C/c2n[nH]c3c(C)nc(cc23)-c2c(C)nn(C)c2O[C@@H](C)C1` [Ex. 148, {[(10S,17E)-12-ethyl-14-[(2S)-1-hydroxypropan-2-yl]-6,8,10,20-tetramethyl-2,10,11,12,13,14-hexahydro-8H-5,3-(azenometheno)tripyrazolo[3,4-f:3′,4′-j:4″,3″-n][1,4]oxazacyclopentadecin-16-yl]oxy}acetonitrile], the 50% inhibitory concentration (IC50) in assay [6] (setting [12]) was determined as 1.76 nM; in [7], 40.5 nM; in assay [11] it was 2.9 nM; in assay [8] (setting [13]), 0.76 nM; in [9] (setting [14]), 0.29 nM; in assay [10], 1.94 nM.

With `Cc1nn(C)c2c1-c1cc3c(n[nH]c3c(C)n1)/C=C/c1c(OCC#N)nn([C@@H](C)CO)c1CN(CC(F)F)C[C@H](C)O2` [Ex. 151, {[(10S,17E)-12-(2,2-difluoroethyl)-14-[(2S)-1-hydroxypropan-2-yl]-6,8,10,20-tetramethyl-2,10,11,12,13,14-hexahydro-8H-5,3-(azenometheno)tripyrazolo[3,4-f:3′,4′-j:4″,3″-n][1,4]oxazacyclopentadecin-16-yl]oxy}acetonitrile], the IC50 in assay [6] (setting [12]) came to 4.89 nM; in assay [7], 26.6 nM; in [11], 3.24 nM; in assay [8] (setting [13]) it was 1.55 nM; in assay [9] (setting [14]), 0.42 nM; in [10] it was 2.04 nM.
